“Also recorded” adds a separate entry of the source.
Tests used:
[1] = tested on: F. nucleatum subsp. nucleatum ATCC 25586 (FNN25); assay: Growth inhibition assay; assay type: cell-based, Fusobacterium nucleatum subsp. nucleatum ATCC 25586; conditions: 10 µM, MHB, 1 × 10^5 CFU/mL input, three replicates
Text: (§1) The following fusobacterial strains were used in this study: Fusobacterium nucleatum subsp. nucleatum ATCC 23726 (FNN23) acquired from the American Type Culture Collection (ATCC), F. nucleatum subsp. nucleatum ATCC 25586 (FNN25), F. nucleatum subsp. vincentii ATCC 49256 (FNV), and F. nucleatum subsp. polymorphum ATCC 10953 (FNP) acquired from the German Collection of Microorganisms and Cell Culture (DSMZ), F. nucleatum subsp. animalis 7_1 (FNA) and F. periodonticum 2_1_31 (FPE) both received as a kind gift from E. Allen-Vercoe (University of Guelph, Canada). All strains were routinely grown at 37°C in 80:10:10 (N2:H2:CO2) anaerobic conditions on 2% agar supplemented BHI plates (BHI, 1% [wt:vol] dried yeast extract, 1% [vol:vol] 50% sterile-filtered glucose solution, 5 µg/mL of hemin; 1% [vol:vol] fetal bovine serum) from frozen 20% glycerol stocks kept at −80°C. For liquid growth, the strains were cultured in Columbia broth (ColB; BD Difco). Precultures were prepared 24 h before inoculating the working culture at a 1:50 dilution in fresh ColB until OD600 0.5 was reached. Cultures were then diluted in non-cation adjusted Mueller-Hinton Broth (MHB, BD Difco) to the desired CFU/mL number. P. gingivalis (DSM 20709) was purchased from DSMZ and grown at 37°C in anaerobic conditions as mentioned above on 2% agar supplemented BHI+ plates (BHI, 1% [wt:vol] dried yeast extract, 1% [vol:vol] 50% sterile filtered glucose solution, 5 µg/ml of hemin; 10% [vol:vol] fetal bovine serum; and 1 µg/mL vitamin K3) for 4 days. […]
(§2) To determine the MIC value, broth microdilutions were performed according to the standard protocol with some modifications ([119]). […] Bacterial growth was monitored by measuring OD600 every 20 min with constant shaking in a plate reader (Biotek) under the normal atmospheric environment or positioned in the anaerobic chamber with double orbital shaking every 20 min prior to each measurement with 237 cpm at 37°C for 120 h.

[2] = tested on: F. nucleatum subsp. animalis 7_1 (FNA); assay: Growth inhibition assay; assay type: cell-based, Fusobacterium nucleatum subsp. animalis 7_1; conditions: 10 µM, MHB, 1 × 10^5 CFU/mL input, three replicates
Text: as §1, §2

[3] = tested on: F. nucleatum subsp. nucleatum ATCC 23726 (FNN23); assay: MIC determination and growth inhibition assay (broth microdilution, OD600 over time); assay type: cell-based, Fusobacterium nucleatum subsp. nucleatum ATCC 23726; conditions: for Growth inhibition of FNN23: 10 µM compound, 1 × 10^5 CFU/mL, growth inhibition = no visible growth (OD600 <0.01) after 120 h
Procedure: To test CPP-PNA conjugates for growth inhibition, we diluted mid-exponential phase cultures of FNN23 to 1 × 10^5 colony forming units (CFUs) per milliliter in Mueller-Hinton Broth (MHB) and incubated the diluted bacteria with 10 µM of either (KFF)3K- or (RXR)4XB- conjugated PNAs targeting acpP, ftsZ or gyrA. Growth was monitored over time by OD600 measurements, with growth inhibition defined as no visible growth (OD600 <0.01) after 120 h. […] Based on these findings, we conclude that CPP-PNAs targeting fusobacterial mRNAs are not effective in antisense inhibition.
The following fusobacterial strains were used in this study: Fusobacterium nucleatum subsp. nucleatum ATCC 23726 (FNN23) acquired from the American Type Culture Collection (ATCC), F. nucleatum subsp. nucleatum ATCC 25586 (FNN25), F. nucleatum subsp. vincentii ATCC 49256 (FNV), and F. nucleatum subsp. polymorphum ATCC 10953 (FNP) acquired from the German Collection of Microorganisms and Cell Culture (DSMZ), F. nucleatum subsp. animalis 7_1 (FNA) and F. periodonticum 2_1_31 (FPE) both received as a kind gift from E. Allen-Vercoe (University of Guelph, Canada). All strains were routinely grown at 37°C in 80:10:10 (N2:H2:CO2) anaerobic conditions on 2% agar supplemented BHI plates (BHI, 1% [wt:vol] dried yeast extract, 1% [vol:vol] 50% sterile-filtered glucose solution, 5 µg/mL of hemin; 1% [vol:vol] fetal bovine serum) from frozen 20% glycerol stocks kept at −80°C. For liquid growth, the strains were cultured in Columbia broth (ColB; BD Difco). Precultures were prepared 24 h before inoculating the working culture at a 1:50 dilution in fresh ColB until OD600 0.5 was reached. Cultures were then diluted in non-cation adjusted Mueller-Hinton Broth (MHB, BD Difco) to the desired CFU/mL number. P. gingivalis (DSM 20709) was purchased from DSMZ and grown at 37°C in anaerobic conditions as mentioned above on 2% agar supplemented BHI+ plates (BHI, 1% [wt:vol] dried yeast extract, 1% [vol:vol] 50% sterile filtered glucose solution, 5 µg/ml of hemin; 10% [vol:vol] fetal bovine serum; and 1 µg/mL vitamin K3) for 4 days. For liquid growth, P. gingivalis was cultured in BHI+ medium (BHI, BD Difco supplemented with 1% [vol:vol] 50% sterile-filtered glucose solution, 5 µg/mL of hemin; 1% [vol:vol] fetal bovine serum, and 1 µg/mL vitamin K3). Precultures were prepared 24 h before inoculating the working culture at a 1:20 dilution in BHI+ until OD600 of 0.5 was reached. All plates, media, buffers, and reagents were brought into the anaerobic chamber the day before usage to ensure full oxygen depletion.
To determine the MIC value, broth microdilutions were performed according to the standard protocol with some modifications ([119]). An overnight bacterial culture was diluted in a fresh ColB medium and grown to OD600 0.5 (mid-exponential phase). […] To determine the growth inhibition of P. gingivalis, an o.n. culture grown in BHI+ was diluted 1:1,500 in MHB to obtain 1 × 10^5 CFU/mL. E. coli K12, E. coli Nissle 1917, and S. enterica o.n. cultures grown in MHB were diluted 1:1,800 in fresh MHB to obtain 1 × 10^5 CFU/mL. In total, 190 µL of diluted bacterial cultures were pipetted into a transparent 96-well plate (Nunc, Thermo Fischer Scientific) together with 10 µL of respective 20× CPP or CPP-PNA stock or water as control. Bacterial growth was monitored by measuring OD600 every 20 min with constant shaking in a plate reader (Biotek) under the normal atmospheric environment or positioned in the anaerobic chamber with double orbital shaking every 20 min prior to each measurement with 237 cpm at 37°C for 120 h.

[4] = tested on: F. nucleatum subsp. vincentii ATCC 49256 (FNV); assay: Growth inhibition assay; assay type: cell-based, Fusobacterium nucleatum subsp. vincentii ATCC 49256; conditions: 10 µM, MHB, 1 × 10^5 CFU/mL input, three replicates
Text: The following fusobacterial strains were used in this study: Fusobacterium nucleatum subsp. nucleatum ATCC 23726 (FNN23) acquired from the American Type Culture Collection (ATCC), F. nucleatum subsp. nucleatum ATCC 25586 (FNN25), F. nucleatum subsp. vincentii ATCC 49256 (FNV), and F. nucleatum subsp. polymorphum ATCC 10953 (FNP) acquired from the German Collection of Microorganisms and Cell Culture (DSMZ), F. nucleatum subsp. animalis 7_1 (FNA) and F. periodonticum 2_1_31 (FPE) both received as a kind gift from E. Allen-Vercoe (University of Guelph, Canada). All strains were routinely grown at 37°C in 80:10:10 (N2:H2:CO2) anaerobic conditions on 2% agar supplemented BHI plates (BHI, 1% [wt:vol] dried yeast extract, 1% [vol:vol] 50% sterile-filtered glucose solution, 5 µg/mL of hemin; 1% [vol:vol] fetal bovine serum) from frozen 20% glycerol stocks kept at −80°C. For liquid growth, the strains were cultured in Columbia broth (ColB; BD Difco). […]
as §2

[5] = tested on: Salmonella enterica serovar Typhimurium SL1344; assay: Growth inhibition assay; assay type: cell-based; conditions: 10 µM, MHB, 1 × 10^5 CFU/mL input, aerobic, 24 h
Procedure: (§3) Aerobic bacterial culture was conducted with E. coli K12 MG1655 (provided by D. Lee), E. coli Nissle 1917, and S. enterica serovar Typhimurium SL1344 (provided by D. Bumann, Biocenter Basel, Switzerland). The strains were streaked on lysogeny broth plates, incubated o.n. at 37°C and cultured in non-cation-adjusted MHB with aeration at 37°C and 220 rpm constant shaking.
(§4) To determine the MIC value, broth microdilutions were performed according to the standard protocol with some modifications ([119]). An overnight bacterial culture was diluted in a fresh ColB medium and grown to OD600 0.5 (mid-exponential phase). Fusobacteria were then diluted 1:2,500 or 1:250 in fresh MHB to obtain 1 × 10^5 CFU/mL or 1 × 10^6 CFU/mL as indicated. To determine the growth inhibition of P. gingivalis, an o.n. culture grown in BHI+ was diluted 1:1,500 in MHB to obtain 1 × 10^5 CFU/mL. E. coli K12, E. coli Nissle 1917, and S. enterica o.n. cultures grown in MHB were diluted 1:1,800 in fresh MHB to obtain 1 × 10^5 CFU/mL. […] Bacterial growth was monitored by measuring OD600 every 20 min with constant shaking in a plate reader (Biotek) under the normal atmospheric environment or positioned in the anaerobic chamber with double orbital shaking every 20 min prior to each measurement with 237 cpm at 37°C for 120 h.

E. coli K12 MG1655 = assay: Growth inhibition assay; assay type: cell-based, Escherichia coli K12; conditions: 10 µM, MHB, 1 × 10^5 CFU/mL input, aerobic, 24 h
Procedure: as §3, §4

| Substance | Growth inhibition of FNN25 [1] | Growth inhibition of FNA [2] | Growth inhibition of FNN23 ([3]; MHB) | Effect on FNN23 at higher inoculum ([3]; 10 µM, 10^7 CFU/mL in MHB (Fig. S3B)) | Growth inhibition of FNN23 by further batches of FUS79 ([3]; batch reordered from original vendor and in-house synthesis, MHB, 1 x 10^5 CFU per ml (Fig. S2A and B)) | MIC of FUS79 ([3]; dilution series, FNN23 in MHB at 1 × 10^5 CFU/mL input, anaerobic, 37°C, OD600 <0.01, three replicates (Fig. 3A)) | Effect on FNN23 in brain heart infusion (BHI) ([3]; peptide-rich medium BHI, 1 x 10^5 CFU per ml input (Fig. S3C)) | Effect on FNN23 in Columbia broth (ColB) ([3]; peptide-rich medium ColB, 1 x 10^5 CFU per ml input (Fig. S3C)) | Growth inhibition of FNV [4] | Effect on growth of S. enterica [5] | Growth inhibition of E. coli K12 (E. coli K12 MG1655) |
| --- | --- | --- | --- | --- | --- | --- | --- | --- | --- | --- | --- |
| (RXR)4XB-GACATAATTGT [FUS79, non-targeting (RXR)4XB-PNA 11-mer control, (RXR)4XB-…] | inhibited the growth | inhibited the growth | completely inhibited growth; also recorded: inhibited the growth | no longer bactericidal | Both batches confirmed the FUS79-mediated growth inhibition | 10 µM | no effect | no effect | inhibited the growth of all strains, except FNV | no specific bactericidal effect | no growth inhibition |
| RXRRXRRXRRXRXB [PNAscr] | growth retardation compared with the water control | growth retardation compared with the water control | no impact on growth |  |  |  |  |  | growth retardation compared with the water control |  | no growth inhibition |
